Experimental data reported in PubChem BioAssay AID720578 (The Scripps Research Institute Molecular Screening Center, 2013).
“And” between values parts separate entries of the source, which are not always exact repeats. Identical values can stand only once. The source made the active and inactive calls. No rule for the calls is given here.

target: Crimean-Congo hemorrhagic fever virus L protein viral ovarian tumor (vOTU) protease domain; assay: CCHFV vOTU protease inhibitor potency, dose response, biochemical, fluorescence, Pep-AMC substrate (AID 720578); settings: recombinant CCHFV vOTU, Pep-AMC fluorescence cleavage

Row | SMILES | IC50
1 | COc1cc(NCCCCCCN)c2ncccc2c1OC | 3.65 µM
2 | O=C(N/N=C1\C/C(=N\NC(=O)c2ccncc2)c2ccccc21)c1ccncc1 | 0.701 µM
3 | COc1cc(NC(=O)COC(=O)c2ccc([N+](=O)[O-])s2)cc(OC)c1OC | 6.6 µM
4 | O=C(c1ccco1)[C@@H]1[C@@H]2C(=O)N(c3ccc(Br)cc3)C(=O)[C@@H]2C2c3ccccc3C=CN21 (stereo partly specified) | 5.26 µM
5 | CN(C)c1ccc2nc3ccc(=O)cc-3sc2c1 | inactive
6 | O=C1C=C(N2CCOCC2)c2ccccc2C1=O | 4.21 µM
7 | COC1=C(Br)C(=O)c2nc(C)ccc2C1=O | 9.43 µM
8 | COc1cccc2c1C(=O)c1c(O)c3c(c(O)c1C2=O)C[C@@](O)(C(=O)CO)C[C@@H]3O[C@H]1C[C@H](N)[C@H](O)[C@H](C)O1 | inactive
9 | O=C(COC(=O)c1ccc([N+](=O)[O-])s1)Nc1ccc(F)cc1 | 7.79 µM
10 | COc1cc(C(=O)c2nccc3cc(OC)c(OC)cc23)c([N+](=O)[O-])cc1OC | 1.05 µM
11 | COc1cc2c(cc1OC)-c1c(OC)c(OC)cc3c1[C@H](C2)N(C)CC3 | 7 µM
12 | Cc1ccccc1NC1=C/C(=N\S(=O)(=O)c2ccc(C(=O)O)cc2)c2ccccc2C1=O | 0.257 µM
13 | Cc1ccc(S(=O)(=O)/N=C2\C=C(Nc3cccc(C(=O)O)c3)C(=O)c3ccccc32)c(C)c1 | 0.973 µM
14 | CC(=O)N(C1=C(Cl)C(=O)c2ccccc2C1=O)c1ccc(C(=O)O)cc1 | 2.74 µM
15 | CCc1ccc(S(=O)(=O)/N=C2\C=C(Nc3cccc(C(=O)O)c3)C(=O)c3ccccc32)cc1 | 0.833 µM
16 | C[n+]1c(-c2ccccc2)cc2c(=Cc3ccccc3)c3ccccc3n21 | 4.95 µM
17 | CCOC(=O)N=Nc1c2ccccc2c2nc3no[nH]c3nc12 | 2.35 µM
18 | COc1cc(NCCCC(C)N)c2ncccc2c1 (stereo unspecified) | 2.52 µM
19 | O=C1Cc2ccccc2C(=O)N1 | 0.396 µM
20 | O=C1C=C(Nc2ccccc2C(=O)O)c2ccccc2C1=O | 3.59 µM
21 | COC(CNC(=O)c1ccc2c3c(onc13)-c1ccccc1C2=O)OC | 3.5 µM

Row | SMILES | IC50
22 | O=C(O)c1ccc(NC2=C(n3nnc4ccccc43)C(=O)c3ccccc3C2=O)cc1 | 4.59 µM
23 | Cn1c(=O)c2c(-c3ccccc3)n(-c3ccc(N)cc3)cc2n(C)c1=O | 4.53 µM
24 | Cc1ccc(NC2=C/C(=N/S(=O)(=O)c3cccs3)c3ccccc3C2=O)cc1 | 0.405 µM
25 | CN(C)c1cccc2c1c(NS(=O)(=O)c1cn(C)cn1)nn2C | inactive
26 | O=C1C=C(NCc2ccccc2)c2ccccc2C1=O | 6.23 µM
27 | Oc1c(N=Nc2nn[nH]n2)ccc2ccccc12 | 5.11 µM
28 | Cc1ccccc1-c1cc2c(nn1)-c1ccccc1C2=O | 0.457 µM
29 | Cc1ccc(CNc2ccc(O)cc2)cc1 | inactive
30 | COc1cc2c(cc1O)[C@@H]1Cc3ccc(OC)c(O)c3CN1CC2 | 7.49 µM
31 | O=C1C(Nc2cccc(O)c2)=C(N2CCCCC2)C(=O)c2ccccc21 | 3.6 µM
32 | O=S(=O)(Nc1cc2nc3ccccc3nc2n1Cc1ccccc1)c1ccc(Cl)cc1 | 2.57 µM
33 | COc1ccc(NC(=S)Nc2ccc3nsnc3c2)cc1 | 6.79 µM
34 | Cc1coc2c(O)cc3c(c12)OC1(N2CCCCC2)C(=O)NCCCC31 (stereo unspecified) | inactive
35 | O=C1C=C(Nc2ccccc2)c2ccccc2C1=O | 6.87 µM
36 | Nc1cc2c(cc1Br)[nH]c(=O)c1ccccc12 | 3.2 µM
37 | C=CCN1C(=O)/C(=C/c2ccc(OC(C)=O)c(OCC)c2[N+](=O)[O-])SC1=S | 7.63 µM
38 | CC(=O)NC1=C(N(C)C2CCS(=O)(=O)C2)C(=O)c2ccccc2C1=O (stereo unspecified) | 8.88 µM
39 | CCCCCCCCCCCCCCCC[n+]1ccccc1 | inactive
40 | COc1ccc(CNC(=O)c2c(C)oc3c2C(=O)c2ccccc2C3=O)cc1 | 8.2 µM
41 | CCOC(=O)c1cc2c(=Cc3ccc(N(C)C)cc3)c3ccccc3n2[n+]1C | 7.38 µM
42 | CN1/C(=C\C=C2C(=O)NC(=O)NC2=O)C(C)(C)c2ccccc21 | inactive

Row | SMILES | IC50
43 | CCCCCCCCCCCCCCCCn1cc[n+](C)c1 | inactive
44 | O=C1C(=O)c2ccccc2-c2ccccc21 | 2.4 µM
45 | Cc1cc(NC2=CC(=O)C(=O)c3ccccc32)no1 | 5.6 µM
46 | O=C(/C=C/c1ccc([N+](=O)[O-])s1)N1CCCCC1 | inactive
47 | O=C1C(SCCO)=C(SCCO)C(=O)c2ccccc21 | 2.15 µM
48 | S=C(Nc1ccc2nsnc2c1)N1CCCCCC1 | inactive
49 | CC(C)C[C@H](NC(=O)c1[nH]cnc1C(=O)N[C@@H](C)C(=O)OC(C)(C)C)C(=O)OC(C)(C)C | > 115 µM (inactive)
50 | CNc1ccc2nc3ccccc3[n+](C)c2c1 | inactive
51 | CN=c1sc2c(n1C)C(=O)c1ccccc1C2=O | 1.78 µM
52 | CC1OC2CC(=O)OC2C2=C1C(=O)c1c(O)cccc1C2=O (stereo unspecified) | 3.45 µM
53 | O=S(=O)(c1ccc2nc(-c3ccco3)c(-c3ccco3)nc2c1)N1CCOCC1 | inactive
54 | Oc1c(C=Nc2cccc3nsnc23)ccc2ccccc12 | inactive
55 | COc1ccc(Cc2nccc3cc(OC)c(OC)cc23)cc1OC | inactive
56 | CCC(CNc1cc(OC)cc2cccnc12)NC1CCCCC1 (stereo unspecified) | 6.32 µM
57 | CC[n+]1c(-c2ccccc2)c2cc(N)ccc2c2ccc(N)cc21 | 1.56 µM
58 | O=C1NC(c2ccc(-c3ccccc3[N+](=O)[O-])o2)C(C(=O)c2ccc(Cl)cc2)C(O)(C(F)(F)F)N1 (stereo unspecified) | inactive
59 | CCc1ccc(S(=O)(=O)Nc2cc(SCC(=O)O)c(O)c3ccccc23)cc1 | 7.64 µM
60 | C[n+]1c2cc(N)ccc2cc2ccc(N)cc21 | 0.945 µM and 3.14 µM
61 | CCOC(=O)N1CCN(C2=C(NS(=O)(=O)c3ccc(C)cc3)C(=O)c3ccccc3C2=O)CC1 | inactive
62 | COc1cc(NC(C)CCCN)c2ncccc2c1 (stereo unspecified) | inactive
63 | O=C1C=C(O)c2[nH]c(=O)ccc2C1=O | 4.26 µM

Row | SMILES | IC50
64 | COc1ccc(-n2c3nc4ccccc4nc3c3c(=N)oc(C)nc32)cc1 | inactive
65 | CCOC(=O)C1CCN(C(=O)c2c(C)oc3c2C(=O)c2ccccc2C3=O)CC1 | inactive
66 | CC(C)=CCC1=C(OCC(=O)O)C(=O)c2ccccc2C1=O | 6.79 µM
67 | COc1ccc(/C=N/NC(=O)c2nn(-c3ccccc3)c(=O)c3c(N)scc23)cc1 | 8.43 µM
68 | CC1OC(CC(=O)O)CC2=C1C(=O)c1c(O)cccc1C2=O (stereo unspecified) | 3.82 µM
69 | O=C(COC(=O)c1ccc([N+](=O)[O-])s1)Nc1ccc(Cl)cn1 | 8.32 µM
70 | NS(=O)(=O)c1ccc(NC(=O)COC(=O)c2ccc([N+](=O)[O-])s2)cc1 | 8.31 µM
71 | CC(C)NC1=C(Cl)C(=O)c2ccccc2C1=O | inactive
72 | COC(=O)c1nc(-c2ccc3c(n2)C(=O)C(N)=C(OC)C3=O)c(N)c(-c2ccc(OC)c(OC)c2O)c1C | 0.931 µM
73 | O=S(=O)(Nc1c(S(=O)(=O)c2ccccc2)c2nc3ccccc3nc2n1C1CCCCC1)c1ccccc1 | > 115 µM (inactive)
74 | NC1=CC(=O)C(=O)c2cccnc21 | 1.85 µM
75 | CC(C)(C)c1cc[n+](C2=C([O-])c3ccccc3C(=O)/C2=N\S(=O)(=O)c2cccs2)cc1 | 6.78 µM
76 | O=C1OC(Nc2cc(Br)cc3cccnc23)c2ccccc21 (stereo unspecified) | 5.23 µM
77 | Cc1cc(=O)c2c(o1)C(=O)c1occc1C2=O | 6.05 µM
78 | CC1(C)C=C2C(=NN(c3ccccc3)C(N)=C2C#N)CO1 | 1.83 µM
79 | COc1cc2c(cc1OC)-c1c(OC)c(OC)cc3c1C(C2)N(C)CC3 (stereo unspecified) | > 115 µM (inactive)
80 | O=C(COC(=O)c1ccc([N+](=O)[O-])s1)Nc1ccccc1 | inactive
81 | NC1=C(Br)C(=O)c2ccccc2C1=O | 4.48 µM
